Tests used:
Conditions in all cases: Compound concentration 100.0 nM
[1] = target: Mitogen-activated protein kinase kinase kinase 6 (Homo sapiens) (UniProt O95382)
[2] = target: Ribosomal protein S6 kinase alpha-1 (Homo sapiens) (UniProt Q15418)
[3] = target: RAC-alpha serine/threonine-protein kinase (Homo sapiens) (UniProt P31749)
[4] = target: Dual specificity protein kinase CLK4 (Homo sapiens) (UniProt Q9HAZ1)
[5] = target: Mitogen-activated protein kinase kinase kinase kinase 3 (Homo sapiens) (UniProt Q8IVH8)
[6] = target: Serine/threonine-protein kinase D2 (Homo sapiens) (UniProt Q9BZL6)
[7] = tested on: Tyrosine-protein kinase ABL1 (Homo sapiens), P00519 [H396P]
[8] = target: Dual specificity mitogen-activated protein kinase kinase 7 (Homo sapiens) (UniProt O14733)
[9] = tested on: Epidermal growth factor receptor (Homo sapiens), P00533 [UNDEFINED MUTATION]
[10] = target: Serine/threonine-protein kinase PAK 1 (Homo sapiens) (UniProt Q13153)
[11] = target: Inhibitor of nuclear factor kappa-B kinase subunit alpha (Homo sapiens) (UniProt O15111)
[12] = target: Leucine-rich repeat serine/threonine-protein kinase 2 (Homo sapiens) (UniProt Q5S007)
[13] = target: Phosphatidylinositol 4,5-bisphosphate 3-kinase catalytic subunit beta isoform (Homo sapiens) (UniProt P42338)
[14] = tested on: Receptor-type tyrosine-protein kinase FLT3 (Homo sapiens), P36888 [K663Q]
[15] = target: Wee1-like protein kinase (Homo sapiens) (UniProt P30291)
[16] = tested on: Hepatocyte growth factor receptor (Homo sapiens), P08581 [M1250T]
[17] = target: Rhodopsin kinase GRK7 (Homo sapiens) (UniProt Q8WTQ7)
[18] = target: Tyrosine-protein kinase SYK (Homo sapiens) (UniProt P43405)
[19] = target: Serine/threonine-protein kinase VRK2 (Homo sapiens) (UniProt Q86Y07)
[20] = target: NT-3 growth factor receptor (Homo sapiens) (UniProt Q16288)
[21] = tested on: Phosphatidylinositol 4,5-bisphosphate 3-kinase catalytic subunit alpha isoform (Homo sapiens), P42336 [E545A]
[22] = target: Rhodopsin kinase GRK1 (Homo sapiens) (UniProt Q15835)
[23] = target: Serine/threonine-protein kinase 38-like (Homo sapiens, UniProt Q9Y2H1)
[24] = target: MAP kinase-interacting serine/threonine-protein kinase 1 (Homo sapiens) (UniProt Q9BUB5)
[25] = target: Tyrosine-protein kinase Yes (Homo sapiens) (UniProt P07947)
[26] = target: Mitogen-activated protein kinase 4 (Homo sapiens) (UniProt P31152)
[27] = target: Serine/threonine-protein kinase 16 (Homo sapiens) (UniProt O75716)
[28] = target: Serine/threonine-protein kinase MARK1 (Homo sapiens) (UniProt Q9P0L2)
[29] = tested on: Phosphatidylinositol 4,5-bisphosphate 3-kinase catalytic subunit alpha isoform (Homo sapiens), P42336 [I800L]
[30] = target: Casein kinase II subunit alpha (Homo sapiens) (UniProt P68400)
[31] = target: Tyrosine-protein kinase Fer (Homo sapiens) (UniProt P16591)
[32] = target: Casein kinase I isoform alpha-like (Homo sapiens) (UniProt Q8N752)
[33] = target: Mitogen-activated protein kinase 15 (Homo sapiens) (UniProt Q8TD08)
[34] = tested on: Epidermal growth factor receptor (Homo sapiens), P00533 [L858R]
[35] = target: Serine/threonine-protein kinase WNK2 (Homo sapiens) (UniProt Q9Y3S1)
[36] = target: Serine/threonine-protein kinase Sgk2 (Homo sapiens) (UniProt Q9HBY8)
[37] = target: Cyclin-dependent kinase-like 1 (Homo sapiens) (UniProt Q00532)
[38] = target: Homeodomain-interacting protein kinase 4 (Homo sapiens) (UniProt Q8NE63)
[39] = target: Serine/threonine-protein kinase Nek9 (Homo sapiens) (UniProt Q8TD19)
[40] = target: Serine/threonine-protein kinase PknB (Mycobacterium tuberculosis) (UniProt P9WI81)
[41] = target: Calcium/calmodulin-dependent protein kinase type II subunit alpha (Homo sapiens) (UniProt Q9UQM7)
[42] = target: Bone morphogenetic protein receptor type-1A (Homo sapiens) (UniProt P36894)
[43] = target: Ephrin type-B receptor 2 (Homo sapiens) (UniProt P29323)
[44] = target: Phosphatidylinositol 3-kinase catalytic subunit type 3 (Homo sapiens) (UniProt Q8NEB9)
[45] = target: Serine/threonine-protein kinase OSR1 (Homo sapiens) (UniProt O95747)
Chain of Serine/threonine-protein kinase OSR1 (Homo sapiens) (O95747 2-527 limits assumed): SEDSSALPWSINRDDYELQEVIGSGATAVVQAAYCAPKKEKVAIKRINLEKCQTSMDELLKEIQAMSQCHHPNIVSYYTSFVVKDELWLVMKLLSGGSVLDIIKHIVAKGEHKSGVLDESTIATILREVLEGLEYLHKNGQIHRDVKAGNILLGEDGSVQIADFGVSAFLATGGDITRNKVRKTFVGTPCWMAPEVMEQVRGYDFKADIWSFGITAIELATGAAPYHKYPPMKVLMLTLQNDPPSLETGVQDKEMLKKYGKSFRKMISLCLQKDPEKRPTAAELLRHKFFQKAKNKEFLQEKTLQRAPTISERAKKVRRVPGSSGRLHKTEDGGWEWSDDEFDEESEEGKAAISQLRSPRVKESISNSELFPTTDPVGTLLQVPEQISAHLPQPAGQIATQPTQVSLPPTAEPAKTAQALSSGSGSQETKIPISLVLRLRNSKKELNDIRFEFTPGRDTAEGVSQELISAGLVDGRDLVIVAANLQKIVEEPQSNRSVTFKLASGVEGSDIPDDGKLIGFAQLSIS

Chain of Ribosomal protein S6 kinase alpha-1 (Homo sapiens) (Q15418 whole entry): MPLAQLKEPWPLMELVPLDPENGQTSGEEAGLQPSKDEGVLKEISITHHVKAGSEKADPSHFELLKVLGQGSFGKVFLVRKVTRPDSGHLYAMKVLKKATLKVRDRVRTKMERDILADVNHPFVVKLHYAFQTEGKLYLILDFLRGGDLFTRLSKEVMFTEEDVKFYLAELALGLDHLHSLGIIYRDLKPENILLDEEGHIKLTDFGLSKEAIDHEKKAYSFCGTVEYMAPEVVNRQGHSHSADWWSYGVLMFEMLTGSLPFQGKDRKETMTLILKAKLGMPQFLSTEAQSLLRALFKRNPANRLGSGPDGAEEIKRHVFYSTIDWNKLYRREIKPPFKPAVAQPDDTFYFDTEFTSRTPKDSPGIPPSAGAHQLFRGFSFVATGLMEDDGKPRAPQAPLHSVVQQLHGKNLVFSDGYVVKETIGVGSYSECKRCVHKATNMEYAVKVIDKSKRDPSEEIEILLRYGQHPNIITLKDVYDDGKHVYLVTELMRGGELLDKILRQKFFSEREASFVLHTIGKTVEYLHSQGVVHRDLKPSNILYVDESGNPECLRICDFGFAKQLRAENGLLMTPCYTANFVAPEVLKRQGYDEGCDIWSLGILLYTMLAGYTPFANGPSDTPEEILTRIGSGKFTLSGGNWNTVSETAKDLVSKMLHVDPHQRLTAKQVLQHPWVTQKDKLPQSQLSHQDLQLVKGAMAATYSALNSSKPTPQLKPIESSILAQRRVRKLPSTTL
Chain of Serine/threonine-protein kinase 16 (Homo sapiens) (O75716 whole entry): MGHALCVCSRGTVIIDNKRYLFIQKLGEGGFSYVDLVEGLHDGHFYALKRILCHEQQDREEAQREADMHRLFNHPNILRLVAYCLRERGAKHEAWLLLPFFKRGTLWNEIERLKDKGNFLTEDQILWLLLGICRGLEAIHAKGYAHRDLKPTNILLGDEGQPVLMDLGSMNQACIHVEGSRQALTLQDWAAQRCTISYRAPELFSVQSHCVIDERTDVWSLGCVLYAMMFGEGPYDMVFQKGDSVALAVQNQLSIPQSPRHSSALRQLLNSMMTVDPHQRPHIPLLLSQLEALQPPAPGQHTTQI
Chain of Leucine-rich repeat serine/threonine-protein kinase 2 (Homo sapiens) (Q5S007 whole entry, canonical isoform): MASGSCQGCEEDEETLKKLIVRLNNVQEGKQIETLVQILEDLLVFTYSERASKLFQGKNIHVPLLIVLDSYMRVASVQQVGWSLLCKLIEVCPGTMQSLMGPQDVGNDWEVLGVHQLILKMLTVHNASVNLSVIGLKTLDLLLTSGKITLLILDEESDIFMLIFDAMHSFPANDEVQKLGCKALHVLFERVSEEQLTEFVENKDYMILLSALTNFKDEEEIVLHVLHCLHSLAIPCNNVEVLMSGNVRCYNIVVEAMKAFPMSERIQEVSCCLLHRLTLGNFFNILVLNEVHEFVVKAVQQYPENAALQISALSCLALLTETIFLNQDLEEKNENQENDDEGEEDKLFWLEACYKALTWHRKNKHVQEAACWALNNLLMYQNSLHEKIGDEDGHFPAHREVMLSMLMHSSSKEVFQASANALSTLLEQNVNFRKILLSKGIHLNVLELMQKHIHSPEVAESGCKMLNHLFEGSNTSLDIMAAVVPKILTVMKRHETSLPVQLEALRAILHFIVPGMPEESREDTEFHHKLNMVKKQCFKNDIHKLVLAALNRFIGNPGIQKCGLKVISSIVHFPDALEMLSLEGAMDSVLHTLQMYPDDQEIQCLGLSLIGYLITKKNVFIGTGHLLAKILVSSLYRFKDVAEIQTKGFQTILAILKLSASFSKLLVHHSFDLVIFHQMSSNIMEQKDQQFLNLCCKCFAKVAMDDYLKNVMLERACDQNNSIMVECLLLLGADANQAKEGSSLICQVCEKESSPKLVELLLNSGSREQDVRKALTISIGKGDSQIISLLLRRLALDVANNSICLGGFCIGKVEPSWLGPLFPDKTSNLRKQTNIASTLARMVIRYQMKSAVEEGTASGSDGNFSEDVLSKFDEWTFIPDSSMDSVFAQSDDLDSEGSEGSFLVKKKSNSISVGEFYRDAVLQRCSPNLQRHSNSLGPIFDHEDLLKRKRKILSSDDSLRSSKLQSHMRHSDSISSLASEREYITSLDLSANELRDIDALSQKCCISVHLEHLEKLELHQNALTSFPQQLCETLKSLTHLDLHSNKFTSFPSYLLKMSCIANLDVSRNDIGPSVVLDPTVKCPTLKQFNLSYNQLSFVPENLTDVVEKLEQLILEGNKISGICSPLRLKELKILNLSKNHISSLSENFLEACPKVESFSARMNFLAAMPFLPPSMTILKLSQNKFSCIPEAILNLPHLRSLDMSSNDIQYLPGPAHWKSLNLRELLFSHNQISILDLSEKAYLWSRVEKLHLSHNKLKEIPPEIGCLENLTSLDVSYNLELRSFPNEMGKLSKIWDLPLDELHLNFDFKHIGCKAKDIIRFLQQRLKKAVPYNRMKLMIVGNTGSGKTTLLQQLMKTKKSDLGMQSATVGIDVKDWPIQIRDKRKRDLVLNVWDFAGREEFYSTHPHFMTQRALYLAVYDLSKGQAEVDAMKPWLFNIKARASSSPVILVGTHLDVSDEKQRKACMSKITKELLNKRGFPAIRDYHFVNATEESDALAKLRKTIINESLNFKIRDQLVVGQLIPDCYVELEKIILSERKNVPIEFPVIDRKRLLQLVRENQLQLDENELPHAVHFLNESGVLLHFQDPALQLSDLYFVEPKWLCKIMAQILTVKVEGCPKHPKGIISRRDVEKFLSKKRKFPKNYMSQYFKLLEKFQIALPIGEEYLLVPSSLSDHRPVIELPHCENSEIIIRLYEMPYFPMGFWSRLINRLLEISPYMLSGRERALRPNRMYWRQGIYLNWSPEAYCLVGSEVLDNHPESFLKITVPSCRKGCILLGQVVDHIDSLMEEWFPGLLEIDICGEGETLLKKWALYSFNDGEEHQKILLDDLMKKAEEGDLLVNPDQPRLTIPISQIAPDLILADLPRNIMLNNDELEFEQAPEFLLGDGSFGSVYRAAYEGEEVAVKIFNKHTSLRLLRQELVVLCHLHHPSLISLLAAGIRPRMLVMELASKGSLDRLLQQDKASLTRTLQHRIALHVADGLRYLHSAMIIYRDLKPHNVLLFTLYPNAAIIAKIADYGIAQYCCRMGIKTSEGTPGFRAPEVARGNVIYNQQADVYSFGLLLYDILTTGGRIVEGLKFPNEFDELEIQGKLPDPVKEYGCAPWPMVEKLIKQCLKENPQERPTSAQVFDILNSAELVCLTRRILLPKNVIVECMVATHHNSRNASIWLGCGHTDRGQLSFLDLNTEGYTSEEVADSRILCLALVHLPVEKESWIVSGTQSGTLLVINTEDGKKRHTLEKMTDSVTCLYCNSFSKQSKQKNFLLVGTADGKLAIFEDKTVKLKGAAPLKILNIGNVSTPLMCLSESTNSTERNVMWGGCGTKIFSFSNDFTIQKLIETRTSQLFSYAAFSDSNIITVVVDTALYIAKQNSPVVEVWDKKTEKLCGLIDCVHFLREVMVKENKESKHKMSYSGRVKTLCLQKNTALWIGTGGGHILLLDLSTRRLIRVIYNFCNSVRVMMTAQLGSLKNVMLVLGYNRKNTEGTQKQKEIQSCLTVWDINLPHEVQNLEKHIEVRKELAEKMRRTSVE
Chain of Casein kinase II subunit alpha (Homo sapiens) (P68400 whole entry, looked up): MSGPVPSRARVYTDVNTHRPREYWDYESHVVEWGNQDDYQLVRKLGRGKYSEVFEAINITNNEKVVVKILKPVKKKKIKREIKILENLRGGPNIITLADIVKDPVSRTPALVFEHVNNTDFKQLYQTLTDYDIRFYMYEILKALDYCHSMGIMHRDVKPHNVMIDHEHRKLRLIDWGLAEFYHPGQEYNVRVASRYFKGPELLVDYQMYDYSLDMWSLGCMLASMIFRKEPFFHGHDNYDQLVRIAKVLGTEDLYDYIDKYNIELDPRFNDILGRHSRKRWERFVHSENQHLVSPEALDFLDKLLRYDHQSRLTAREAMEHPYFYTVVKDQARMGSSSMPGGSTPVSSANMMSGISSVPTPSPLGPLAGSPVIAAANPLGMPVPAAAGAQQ
Chain of Rhodopsin kinase GRK1 (Homo sapiens) (Q15835 whole entry): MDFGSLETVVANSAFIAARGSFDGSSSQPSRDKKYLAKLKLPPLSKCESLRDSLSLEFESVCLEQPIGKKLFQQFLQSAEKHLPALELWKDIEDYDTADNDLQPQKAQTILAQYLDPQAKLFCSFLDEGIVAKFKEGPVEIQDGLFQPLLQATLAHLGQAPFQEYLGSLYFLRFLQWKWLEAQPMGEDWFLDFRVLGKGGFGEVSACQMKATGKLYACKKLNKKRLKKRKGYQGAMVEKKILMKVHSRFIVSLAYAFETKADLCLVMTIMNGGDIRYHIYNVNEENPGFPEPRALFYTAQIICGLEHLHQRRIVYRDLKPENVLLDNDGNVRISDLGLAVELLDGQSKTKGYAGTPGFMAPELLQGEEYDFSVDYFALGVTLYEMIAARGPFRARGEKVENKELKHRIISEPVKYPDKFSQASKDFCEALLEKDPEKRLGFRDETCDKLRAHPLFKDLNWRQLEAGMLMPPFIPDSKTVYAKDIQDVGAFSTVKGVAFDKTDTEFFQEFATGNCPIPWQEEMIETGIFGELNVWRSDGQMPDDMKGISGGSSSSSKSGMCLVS

In the case of `CS(=O)(=O)N1CCCC(NC(=O)[C@H](CCC2CCCCC2)NC(=O)c2ccc(CNc3ncnc4c3nnn4-c3ccccc3)cc2)C1` (stereo not given in full) [SR-301], the residual activity [1] is reported as 100%, the residual activity [2] is reported as 100% and the residual activity [3] is reported as 100%. The residual activity [4] was 85%, the residual activity [5] was 75% and the residual activity [6] was 92%. The residual activity [7] was 100%, the residual activity [8] was 100% and the residual activity [9] was 66%. For the same molecule, the residual activity [10] was 100%, the residual activity [11] was 100% and the residual activity [12] was 51%. It also gave a residual activity [13] of 81%, a residual activity [14] of 94% and a residual activity [15] of 72%. For the same molecule, the residual activity [16] was 87%, the residual activity [17] was 100% and the residual activity [18] was 88%. For the same molecule, the residual activity [19] was 91%, the residual activity [20] was 86% and the residual activity [21] was 100%. It also gave a residual activity [22] of 94%, a residual activity [23] of 24% and a residual activity [24] of 86%. The residual activity [25] was 98%, the residual activity [26] was 96% and the residual activity [27] was 100%. For the same molecule, the residual activity [28] was 74%, the residual activity [29] was 44% and the residual activity [30] was 94%. The residual activity [31] was 86%, the residual activity [32] was 100% and the residual activity [33] was 100%. The residual activity [34] was 100%, the residual activity [35] was 100% and the residual activity [36] was 100%. For the same molecule, the residual activity [37] was 71%, the residual activity [38] was 100% and the residual activity [39] was 100%. The residual activity [40] was 90%, the residual activity [41] was 100% and the residual activity [42] was 90%. For the same molecule, the residual activity [43] was 87%, the residual activity [44] was 100% and the residual activity [45] was 100%.
With `CS(=O)(=O)N1CCCC(NC(=O)[C@H](CCC2CCCCC2)NC(=O)c2ccc(CNC(=O)c3cnc4ccccn34)cc2)C1` (stereo not given in full) [SR-302] the residual activity [1] was 100%, the residual activity [2] was 74% and the residual activity [3] was 100%. It also gave a residual activity [4] of 98%, a residual activity [5] of 87% and a residual activity [6] of 100%. For the same molecule, the residual activity [7] was 100%, the residual activity [8] was 95% and the residual activity [9] was 99%. The residual activity [10] was 82%, the residual activity [11] was 100% and the residual activity [12] was 64%. For the same molecule, the residual activity [13] was 96%, the residual activity [14] was 100% and the residual activity [15] was 100%. The residual activity [16] was 69%, the residual activity [17] was 91% and the residual activity [18] was 93%. For the same molecule, the residual activity [19] was 76%, the residual activity [20] was 88% and the residual activity [21] was 99%. For the same molecule, the residual activity [22] was 100%, the residual activity [23] was 40% and the residual activity [24] was 100%. It also gave a residual activity [25] of 88%, a residual activity [26] of 100% and a residual activity [27] of 100%. It also gave a residual activity [28] of 100%, a residual activity [29] of 100% and a residual activity [30] of 100%. For the same molecule, the residual activity [31] was 99%, the residual activity [32] was 99% and the residual activity [33] was 100%. The residual activity [34] was 83%, the residual activity [35] was 100% and the residual activity [36] was 100%. It also gave a residual activity [37] of 91%, a residual activity [38] of 88% and a residual activity [39] of 100%. For the same molecule, the residual activity [40] was 100%, the residual activity [41] was 100% and the residual activity [42] was 94%. The residual activity [43] was 100%, the residual activity [44] was 100% and the residual activity [45] was 94%.

From ChEMBL document CHEMBL4507324 (2021)
